# Laboratory results as given in US20220347175A1, “PYRIDAZINONE DERIVATIVE” (Sumitomo Dainippon Pharma Co., Ltd., priority 2018, published 2022).
# Columns and labels:
# human Nav1.5 = target: T1, human Nav1.5 (Homo sapiens, UniProt Q14524); assay: Amplification of Nav1.5-derived voltage-dependent sodium current (Nav1.5 current), cell line stably expressing human Nav1.5, automated patch clamp; type: cell-based; settings: CHO-K1 stably expressing human Nav1.5
# T1 construct: expressed in transfected cells; host or cells: CHO-K1 (T-REx System, ThermoFisher Scientific)
# Protocol: Test 2: Evaluation of the Amplification in Nav1.5-Derived Voltage-Dependent Sodium Current (Nav1.5 Current) by Using a Cell Line Stably Expressing Human Nav1.5
# A CHO-K1 cell line (Chinese hamster ovary) stably expressing human Nav1.5 (Gene Bank Accession No: P000326.2) was obtained by using purchased T-Rex System (ThermoFisher Scientific, USA), and used for the present test. The effect of test compounds on the amplification of Nav1.5 current was evaluated by using a cell line stably expressing human Nav1.5 and HTS automated patch clamp system, similarly in the method using Nav1.1. In other words, test compounds were added in an extracellular fluid which contained 1% DMSO and 500 nmol/L Tetrodotoxin (TTX), and evaluated as a change of the peak value of Nav1.5 current and the area under the curve (AUC). The induction and the measurement of Nav1.5 current, the pharmacologic effect on Nav1.5 current, and a method for pharmacological evaluation were carried out by the same method as in Nav1.1.
# human Nav1.1 = target: T2, human Nav1.1 (Homo sapiens, UniProt P35498); assay: Amplification of Nav1.1-derived voltage-dependent sodium current (Nav1.1 current), cell line stably expressing human Nav1.1, automated patch clamp; type: cell-based; settings: HEK293 stably expressing human Nav1.1
# T2 construct: host or cells: HEK293
# Procedure, shortened: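 Automated whole-cell voltage-clamp recordings used HEK293 cells stably expressing human Nav1.1, keeping only cells with >500 pA current, with currents evoked by ramp voltage. Compounds were applied in extracellular fluid with 1% DMSO, and amplification (%) was computed from peak current or AUC after versus before addition.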
# T1 sequence (Q14524 1-2015 isoform Q14524-2): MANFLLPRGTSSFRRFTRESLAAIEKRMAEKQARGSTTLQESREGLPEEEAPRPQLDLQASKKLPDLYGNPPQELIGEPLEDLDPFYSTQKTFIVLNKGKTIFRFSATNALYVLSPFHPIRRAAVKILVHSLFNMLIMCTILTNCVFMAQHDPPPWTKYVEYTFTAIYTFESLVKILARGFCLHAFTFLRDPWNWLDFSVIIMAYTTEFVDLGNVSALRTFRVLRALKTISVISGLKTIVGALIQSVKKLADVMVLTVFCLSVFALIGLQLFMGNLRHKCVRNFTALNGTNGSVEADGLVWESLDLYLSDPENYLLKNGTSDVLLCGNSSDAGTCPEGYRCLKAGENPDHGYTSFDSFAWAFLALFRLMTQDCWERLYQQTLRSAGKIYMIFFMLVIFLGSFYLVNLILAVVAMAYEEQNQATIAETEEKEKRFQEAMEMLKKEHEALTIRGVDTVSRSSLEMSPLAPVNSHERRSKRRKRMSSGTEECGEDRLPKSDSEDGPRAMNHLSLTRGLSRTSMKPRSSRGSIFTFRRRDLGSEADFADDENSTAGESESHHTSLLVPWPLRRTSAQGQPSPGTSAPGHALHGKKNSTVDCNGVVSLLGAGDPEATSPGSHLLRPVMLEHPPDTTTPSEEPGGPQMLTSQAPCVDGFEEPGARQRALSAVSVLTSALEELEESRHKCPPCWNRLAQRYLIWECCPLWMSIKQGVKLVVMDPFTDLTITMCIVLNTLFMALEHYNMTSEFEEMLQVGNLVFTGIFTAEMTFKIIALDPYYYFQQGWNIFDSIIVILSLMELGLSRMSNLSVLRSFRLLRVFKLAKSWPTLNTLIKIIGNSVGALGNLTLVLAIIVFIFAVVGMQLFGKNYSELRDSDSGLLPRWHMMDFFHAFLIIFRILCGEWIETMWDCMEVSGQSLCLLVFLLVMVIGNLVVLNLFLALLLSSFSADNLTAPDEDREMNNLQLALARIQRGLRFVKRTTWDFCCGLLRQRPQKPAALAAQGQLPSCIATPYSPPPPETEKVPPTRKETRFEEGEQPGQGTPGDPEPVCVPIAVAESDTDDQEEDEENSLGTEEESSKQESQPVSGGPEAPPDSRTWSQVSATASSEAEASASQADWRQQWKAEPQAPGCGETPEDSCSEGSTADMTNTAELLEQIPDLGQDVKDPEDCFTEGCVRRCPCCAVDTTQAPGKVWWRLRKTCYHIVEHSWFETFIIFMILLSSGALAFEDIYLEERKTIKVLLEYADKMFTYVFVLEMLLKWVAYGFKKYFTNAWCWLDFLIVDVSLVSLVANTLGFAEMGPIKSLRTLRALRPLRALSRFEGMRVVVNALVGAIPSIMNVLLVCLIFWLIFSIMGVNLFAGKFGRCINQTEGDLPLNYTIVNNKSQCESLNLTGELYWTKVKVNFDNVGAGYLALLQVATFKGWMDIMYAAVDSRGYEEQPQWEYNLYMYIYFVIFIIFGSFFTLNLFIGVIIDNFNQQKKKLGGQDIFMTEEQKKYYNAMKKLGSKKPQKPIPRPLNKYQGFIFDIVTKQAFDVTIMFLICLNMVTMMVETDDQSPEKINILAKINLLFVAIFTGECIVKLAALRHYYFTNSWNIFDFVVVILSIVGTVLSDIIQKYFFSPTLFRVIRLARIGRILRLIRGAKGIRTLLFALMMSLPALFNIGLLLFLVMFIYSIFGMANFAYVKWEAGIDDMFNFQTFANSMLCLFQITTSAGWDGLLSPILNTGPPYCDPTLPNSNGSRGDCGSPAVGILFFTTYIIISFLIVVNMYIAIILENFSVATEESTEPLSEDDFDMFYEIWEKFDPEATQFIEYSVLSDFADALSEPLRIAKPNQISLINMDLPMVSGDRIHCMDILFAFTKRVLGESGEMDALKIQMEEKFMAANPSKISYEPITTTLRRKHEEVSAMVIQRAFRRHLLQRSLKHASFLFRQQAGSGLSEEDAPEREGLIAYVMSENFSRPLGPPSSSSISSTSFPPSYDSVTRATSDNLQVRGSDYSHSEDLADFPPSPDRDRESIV
Compound,Nav1.5 current amplification rate (%) (human Nav1.5; compound 3 μmol/L),Nav1.1 current amplification rate (%) (human Nav1.1; compound 3 μmol/L),Nav1.5 current amplification rate (%) (human Nav1.5; compound 1 μmol/L),Nav1.1 current amplification rate (%) (human Nav1.1; compound 1 μmol/L)
CC1CC=C(c2ccc(=O)n(CC(=O)N3CCc4c(CN5CCOCC5)cccc43)n2)CC1 (racemic) [Example 270],78%,481%,–,–
CC1CC=C(c2ccc(=O)n(CC(=O)N3CCc4c(CN5CCCC5)cccc43)n2)CC1 (racemic) [Example 271],70%,48%,–,–
CC1CC=C(c2ccc(=O)n(CC(=O)N3CCc4c(CN(C)C5COC5)cccc43)n2)CC1 (racemic) [Example 276],–,–,47%,207%
CC1CC=C(c2ccc(=O)n(CC(=O)N3CCc4c3cccc4C(C)(C)O)n2)CC1 (racemic) [Example 277],–,–,18%,210%
CC1CC=C(c2ccc(=O)n(CC(=O)N3CCc4c(Cn5ccnc5)cccc43)n2)CC1 (racemic) [Example 286],–,–,579%,848%
CC1CC=C(c2ccc(=O)n(CC(=O)N3CCc4c(CN5CC=CC5)cccc43)n2)CC1 (racemic) [Example 287],–,–,123%,73%
CC1CC=C(c2ccc(=O)n(CC(=O)N3CCOc4c(-c5cn[nH]c5)cccc43)n2)CC1 (racemic) [Example 290],4.5%,94%,–,–
CC1CC=C(c2ccc(=O)n(CC(=O)N3CCc4c(Cn5cncn5)cccc43)n2)CC1 (racemic) [Example 294],–,–,427%,271%
CC1CC=C(c2ccc(=O)n(CC(=O)N3CCc4c(C5CNC5)cccc43)n2)CC1 (racemic) [Example 299],10%,6%,–,–
CC1CC=C(c2ccc(=O)n(CC(=O)N3CCc4c(C5CN(C)C5)cccc43)n2)CC1 (racemic) [Example 300],55%,140%,–,–
CC1CC=C(c2ccc(=O)n(CC(=O)N3CCc4c(C5CN(C6COC6)C5)cccc43)n2)CC1 (racemic) [Example 301],55%,410%,–,–
CCN1CC(c2cccc3c2CCN3C(=O)Cn2nc(C3=CCC(C)CC3)ccc2=O)C1 (racemic) [Example 302],79%,104%,–,–
CC1CC=C(c2ccc(=O)n(CC(=O)N3CCc4c(C5CN(CCO)C5)cccc43)n2)CC1 (racemic) [Example 303],11%,67%,–,–
CC1CC=C(c2ccc(=O)n(CC(=O)N3CCc4c(C5CN(C6CCOC6)C5)cccc43)n2)CC1 (racemic) [Example 305],117%,314%,–,–
CC1CC=C(c2ccc(=O)n(CC(=O)N3CCc4c(C5CN(C(=O)C(C)(C)O)C5)cccc43)n2)CC1 (racemic) [Example 306],327%,532%,–,–
CC1CC=C(c2ccc(=O)n(CC(=O)N3CCc4c(OCC(C)(C)O)cccc43)n2)CC1 (racemic) [Example 307],37%,320%,–,–
CC1CC=C(c2ccc(=O)n(CC(=O)N3CCc4c(-c5cn[nH]c5)cncc43)n2)CC1 (racemic) [Example 311],–,–,52%,265%
CC1CC=C(c2ccc(=O)n(CC(=O)N3CCc4c(CNC5COC5)cccc43)n2)CC1 (racemic) [Example 313],–,–,133%,84%
CC1CC=C(c2ccc(=O)n(CC(=O)N3CCc4cc(C5CN(C6COC6)C5)ccc43)n2)CC1 (racemic) [Example 318],128%,77%,–,–
CC1CC=C(c2ccc(=O)n(CC(=O)N3CCc4c3ccnc4N3CCOCC3)n2)CC1 (racemic) [Example 319],–,–,30%,134%
CC1CC=C(c2ccc(=O)n(CC(=O)N3CCc4c(C5CN(C(=O)CO)C5)cccc43)n2)CC1 (racemic) [Example 321],330%,478%,–,–
CC1CC=C(c2ccc(=O)n(CC(=O)Nc3cccc(N4CCOCC4)c3F)n2)CC1 (racemic) [Example 322],18%,115%,–,–
